Test system: Wnt pathway
Assay: Wnt pathway Super-top flash (STF) reporter gene assay (primary assay)
Type: cell-based
Conditions: HEK293 STF cells co-cultured 1:1 with L Wnt3A cells; 48 h incubation; inhibition of luminescence signaling
Procedure: The primary assay is based on Wnt pathway Super-top flash (STF) reporter gene assay:
HEK293 STF stable clones (HEK293 cells stably transfected with “Super-Top Flash” TCF-luciferase reporter plasmid) were kept in complete culture medium (DMEM with 4 mM L-Gln, 1.5 g/L sodium bicarbonate and 4.5 g/L glucose containing 6 μg/mL Blasticidin and 10% FBS). L Wnt3A cells (CRL-2647, ATCC) were kept in DMEM (Gibico) containing 10% FBS (Hyclone). HEK293 STF and L Wnt3A cells were harvested when 90% confluence and cell suspension was mixed with a fixed ratio of 1:1 (HEK293 STF: L Wnt3A). 100 μL/well of mixed cells suspension was added to the 96-well-plate with final cell concentration of 12,000 cells/well and then cultured for an additional 24 hours before adding compounds.
Compounds were diluted in DMSO in sequence and then diluted with DMEM medium. 20 μL medium containing compound was added to the cells according to the pre-setting dose. Cell plates were incubated at 37° C. for an additional 48 hours.
50 μL luciferase solution (Bright-Glo, Promega) was added to each well […] the 48 h incubation. The plates were incubated at room temperature for 5 min under gentle shaking. Luminescence signaling was measured with a plate reader (PHERAstar FS, BMG). The IC50 (potency) of compounds was calculated based on the inhibition of luminescence signaling.

`COc1cc(CNc2nccc(-c3cc4cccnc4cn3)c2F)cnc1-c1ccnc(C)c1` [Compound A-122] was tested, and the IC50 was 0.13 nM.
Compound `COc1cc(CNc2ncnc(-c3cc4cccnc4cn3)c2F)cnc1-c1ccnc(C)c1` [Compound A-84] has an IC50 of 0.26 nM.
`Cc1cc(-c2ncc(CNc3nccc(-c4ccn5nccc5n4)c3F)cc2C#N)ccn1` [Compound A-96] showed an IC50 of 0.2 nM.
In the case of `Cc1cc(-c2ncc(CNc3ncnc(N4CCc5ncccc5C4)c3F)cc2C)ccn1` [Compound A-46], the IC50 is reported as 4.9 nM.
Compound `N#Cc1ccc2cc(CNc3nsc(-c4ccc5ncccc5c4)n3)cnc2c1` [Compound A-199, 3-((5-(quinolin-6-yl)-1,2,4-thiadiazol-3-ylamino)methyl)quinoline-7-carbonitrile] has an IC50 of 0.17 nM.
For `Cc1cc(-c2ccc(CNc3nsc(-c4ccc5ncccc5c4)n3)cc2)ccn1` [Compound A-186], the IC50 was 0.27 nM.
`Cc1cc(-c2ncc(CNc3nccc(-c4cc5cccnc5cn4)c3F)cc2F)ccn1` [Compound A-103] was tested, and the IC50 was 0.12 nM.
In the case of `Cc1cc(-c2ccc(CNc3ccnc(-c4ccc5ccccc5c4)n3)cc2)ccn1` [Compound A-151], the IC50 is reported as 2000 nM.
In the case of `Cc1cc(-c2ccc(CN(C)c3ncnc(-c4ccc5ccccc5c4)c3F)cc2)ccn1` [Compound A-27, 5-fluoro-N-methyl-N-(4-(2-methylpyridin-4-yl)benzyl)-6-(naphthalen-2-yl)pyrimidin-4-amine], the IC50 is reported as 937 nM.
`Cc1cc(-c2ncc(CNc3nccc(-c4cnn(C)c4)c3F)cc2C#N)ccn1` [Compound A-128] showed an IC50 of 1.8 nM.
`Cc1cc(-c2ncc(CNc3nccc(-c4cc5cccnc5cn4)n3)cc2F)ccn1` [Compound A-184] showed an IC50 of 1 nM.
In the case of `Cc1cc(-c2ccc(CNc3ncnc(N4CCc5ncccc5C4)c3F)cn2)ccn1` [Compound A-32], the IC50 is reported as 2 nM.
With `Cc1cc(-c2ccc(CNc3ccnc(N4CCc5ncccc5C4)n3)cc2)ccn1` [Compound A-158] the IC50 was 3000 nM.
In the case of `Cc1cc(-c2ncc(CNc3nsc(-c4ccc5ncccc5c4)n3)cc2C#N)ccn1` [Compound A-194], the IC50 is reported as 0.09 nM.
For `Cc1cc(-c2ccc(CNc3cc(N4CCCC4)nc(N4CCc5ccccc5C4)n3)cc2)ccn1` [Compound A-136], the IC50 was 4000 nM.
With `Cc1cc(-c2ccc(CNc3nccc(-c4ccc5ncccc5c4)n3)cn2)ccn1` [Compound A-169] the IC50 was 4.9 nM.
`Cc1cc(-c2cnc(CNc3nccc(-c4ccc5ncccc5c4)n3)cn2)ccn1` [Compound A-174] showed an IC50 of 2.7 nM.
For `Cc1cc(-c2ncc(CNc3ncnc(N4CCc5ncncc5C4)c3F)cc2F)ccn1` [Compound A-62], the IC50 was 6.2 nM.
Compound `Cc1cc(-c2ccc(CNc3cc(Cl)nc(N4CCc5ccccc5C4)n3)cc2)ccn1` [Compound A-135] has an IC50 of 3000 nM.
In the case of `O=S1(=O)CCN(c2ccc(CNc3nccc(-c4ccc5ncccc5c4)n3)cn2)CC1` [Compound A-180], the IC50 is reported as 300 nM.
`Cc1cc(-c2ccc(CNc3ncnc(-c4cccc(Cl)c4)c3F)cc2)ccn1` [Compound A-19] gave an IC50 of 14 nM.
With `Cc1cc(-c2ccc(CNc3cc(-c4ccc5ccccc5c4)ncn3)cc2)ccn1` [Compound A-134] the IC50 was 24 nM.
Work on `Cc1cc(-c2ncc(CNc3ncnc(N4CCNC(=O)C4)c3F)cc2F)ccn1` [Compound A-80] yielded an IC50 of 768 nM.
With `Cc1cc(-c2ncc(CNc3ncnc(N4CCn5nnnc5C4)c3F)cc2C#N)ccn1` [Compound A-91] the IC50 was 53 nM.
Work on `Cc1cncc(-c2ccnc(NCc3cnc(-c4ccnc(C)c4)c(C#N)c3)c2F)c1` [Compound A-132] yielded an IC50 of 0.25 nM.
In the case of `Cc1cc(-c2ccc(CNc3ncnc(-c4ccc5nn(C)cc5c4)c3F)cc2)ccn1` [Compound A-14], the IC50 is reported as 5.9 nM.
Work on `CS(=O)(=O)CCNc1ccc(CNc2nsc(-c3ccc4ncccc4c3)n2)cn1` [Compound A-189] yielded an IC50 of 3000 nM.
In the case of `Cc1cc(-c2ccc(CNc3ncnc(-c4ccc5ccccc5c4)c3F)s2)ccn1` [Compound A-29], the IC50 is reported as 577 nM.
Work on `COc1cc(CNc2ncnc(-c3ccc4ncccc4c3)c2F)cnc1-c1ccnc(C)c1` [Compound A-65] yielded an IC50 of 0.44 nM.
`Cc1cc(-c2ccc(CNc3nsc(-c4ccc5ncccc5c4)n3)cn2)ccn1` [Compound A-190] was tested, and the IC50 was 0.4 nM.
For `Cc1cc(-c2ncc(CNc3nccc(N4CCc5ncccc5C4)c3F)cc2F)ccn1` [Compound A-202, 4-(7,8-dihydro-1,6-naphthyridin-6(5H)-yl)-3-fluoro-N-((3-fluoro-2′-methyl-2,4′-bipyridin-5-yl)methyl)pyridin-2-amine], the IC50 was 0.5 nM.
`Cc1cc(-c2ccc(C(C)Nc3ncnc(-c4ccc5ccccc5c4)c3F)cc2)ccn1` (stereo not drawn) [Compound A-28] was tested, and the IC50 was 17 nM.
`Cc1cc(-c2ccc(CNc3nccc(-c4ccc5ncccc5c4)c3F)cc2)ccn1` [Compound A-97] was tested, and the IC50 was 0.18 nM.
For `Cc1cc(-c2ncc(CNc3nccc(-c4ccc5nccnc5c4)c3F)cc2F)ccn1` [Compound A-124], the IC50 was 0.12 nM.
`Cn1nc(CNc2ncnc(-c3ccc4ncccc4c3)c2F)ccc1=O` [Compound A-83] gave an IC50 of 3000 nM.
Work on `Cc1cc(-c2ncc(CNc3ncnc(NCC4CC4)c3F)cc2F)ccn1` [Compound A-81] yielded an IC50 of 625 nM.
`Cc1cc(-c2ccc(CNc3ccnc(-c4ccc5ccccc5c4)c3)cc2)ccn1` [Compound A-164] showed an IC50 of 3000 nM.
In the case of `Cc1cc(-c2ccc(CNc3nccc(-c4ccc5ncccc5c4)n3)cc2)ccn1` [Compound A-154], the IC50 is reported as 1.2 nM.
Work on `Cc1cc(-c2ncc(CNc3ncnc(N4CCn5nccc5C4)c3F)cc2C#N)ccn1` [Compound A-201] yielded an IC50 of 0.8 nM.
For `Cc1cc(-c2ccc(CNc3cc(-c4ccc5cnccc5c4)ncn3)cc2)ccn1` [Compound A-148], the IC50 was 10 nM.
For `O=S1(=O)CCN(c2ccc(CNc3nccc(-c4ccc5ncccc5c4)c3F)cn2)CC1` [Compound A-111], the IC50 was 10 nM.
For `Cc1cc(-c2ccnc(NCc3cnc(-c4ccnc(C)c4)c(C#N)c3)c2F)ccn1` [Compound A-127], the IC50 was 0.34 nM.
Compound `N#Cc1ccc(NCCNc2nccc(-c3ccc4ncccc4c3)c2F)nc1` [Compound A-120] has an IC50 of 12 nM.
With `N#Cc1ccc2cc(CNc3ncnc(N4CCc5ncccc5C4)c3F)cnc2c1` [Compound A-76] the IC50 was 1.3 nM.
Work on `Cc1cc(-c2ccc(CNc3ncnc(-c4ccc5ncccc5c4)n3)cc2)ccn1` [Compound A-160] yielded an IC50 of 6.7 nM.
For `Cc1cc(-c2ncc(CNc3nccc(-c4ccc5ncccc5c4)c3F)cn2)ccn1` [Compound A-100], the IC50 was 0.27 nM.
`N#Cc1ccc(NCCNc2nsc(-c3ccc4ncccc4c3)n2)nc1` [Compound A-200] gave an IC50 of 25 nM.
Work on `Cc1cc(-c2ccc(C(C)Nc3cc(-c4ccc5ccccc5c4)ncn3)cc2)ccn1` (stereo not drawn) [Compound A-147] yielded an IC50 of 40 nM.
Compound `Cc1cc(-c2ccc(CNc3ncnc(-c4ccc5nncn5c4)c3F)cc2)ccn1` [Compound A-55] has an IC50 of 3000 nM.
`Cc1cc(-c2ccc(CNc3ncnc(N4CCc5c(F)cccc5C4)c3F)cc2)ccn1` [Compound A-24] showed an IC50 of 37 nM.
`Cc1cc(-c2ncc(CNc3nccc(-c4cc5cccnc5cn4)c3F)cc2C#N)ccn1` [Compound A-121, 5-((3-fluoro-4-(1,7-naphthyridin-6-yl)pyridin-2-ylamino)methyl)-2′-methyl-2,4′-bipyridine-3-carbonitrile] was tested, and the IC50 was 0.06 nM.
Compound `Cc1cc(-c2ncc(CNc3ncnc(-c4cc5cccnc5cn4)c3F)cc2F)ccn1` [Compound A-85, 5-fluoro-N-((3-fluoro-2′-methyl-2,4′-bipyridin-5-yl)methyl)-6-(1,7-naphthyridin-6-yl)pyrimidin-4-amine] has an IC50 of 0.14 nM.
In the case of `Cc1cc(-c2ncc(CNc3nccc(-c4cncc(Cl)c4)c3F)cc2F)ccn1` [Compound A-116], the IC50 is reported as 8 nM.
`Cc1cc(-c2ncc(CNc3ncnc(NCc4cccnc4)c3F)cc2F)ccn1` [Compound A-82] showed an IC50 of 338 nM.
`Cc1cc(-c2ccc(CNc3ncnc(-c4ccc5nccnc5c4)c3F)cc2)ccn1` [Compound A-8] showed an IC50 of 1.5 nM.
`Cc1cc(-c2ccc(CNc3ncnc(-c4ccc5c(c4)OCCO5)c3F)cc2)ccn1` [Compound A-16] gave an IC50 of 27 nM.
`Cc1cc(-c2ccc(CNc3ncnc(-c4ccc5cnccc5c4)c3F)cc2)ccn1` [Compound A-6] was tested, and the IC50 was 4.7 nM.
Work on `Cc1cc(-c2ccc(CNc3ncnc(N4CCc5ccccc5C4C)c3F)cc2)ccn1` (stereo not drawn) [Compound A-70] yielded an IC50 of 147 nM.
`N#Cc1ccc2nc(CNc3ncnc(N4CCc5ncccc5C4)c3F)ccc2c1` [Compound A-74] was tested, and the IC50 was 1.6 nM.
`Cc1cc(-c2ccc(CNc3ncnc(-c4ccc5ccccc5c4)c3F)cc2)ccn1` [Compound A-1, 5-fluoro-N-(4-(2-methylpyridin-4-yl)benzyl)-6-(naphthalen-2-yl)pyrimidin-4-amine] gave an IC50 of 1.4 nM.
`Cc1cc(-c2ncc(CNc3ncnc(C#Cc4cccnc4)c3F)cc2F)ccn1` [Compound A-69, 5-fluoro-N-((3-fluoro-2′-methyl-2,4′-bipyridin-5-yl)methyl)-6-(pyridin-3-ylethynyl)pyrimidin-4-amine] gave an IC50 of 73 nM.
`Cc1cc(-c2ncc(CNc3ncnc(N4CCn5nccc5C4)c3F)cc2F)ccn1` [Compound A-87] was tested, and the IC50 was 0.51 nM.
With `COc1cncc(-c2ccnc(NCc3cnc(-c4ccnc(C)c4)c(C#N)c3)c2F)c1` [Compound A-129] the IC50 was 0.4 nM.
`Cc1cc(-c2ccc(CNc3nccc(-c4ccc5ccccc5c4)n3)cc2)ccn1` [Compound A-152] showed an IC50 of 4.9 nM.
Compound `Cc1cc(-c2ccc(CNc3ncnc(-c4ccc5[nH]ncc5c4)c3F)cc2)ccn1` [Compound A-13] has an IC50 of 99 nM.
With `Cc1cc(-c2ncc(CNc3ncnc(-c4ccc5ccccc5c4)c3F)cc2F)ccn1` [Compound A-35] the IC50 was 4 nM.
